Test results as given in patent US20240218059A1, “TGF-Beta 1 INHIBITORS FOR PREVENTING AND TREATING SARS-COV-2” (The Regents of the University of Colorado, A Body Corporate, priority 2020, published 2024).

How the values were obtained:
[1] = tested on: TGF-β1 signaling caused by NSP15 activation of human latent TGF-β1; format: cell-based, mink; conditions: 1 hour pre-incubation; 2 μg/ml of antibody or 1-2 μM small molecule; 0-2.4 nM NSP15 plus 2 nM latent human TGF-β1; MLEC; FIG. 8
[2] = tested on: active TGF-β1 signaling; assay: inhibition of active TGF-β1 signaling in MLEC luciferase reporter cells; format: cell-based, mink
Procedure: In these experiments, SB505124 and galunisertib (Fisher, Inc.) inhibitors were added at 1-2 uM concentrations to MLEC plated in 96-well plates using a 1 hour pre-incubation before addition of human active TGF-β1 in […] concentrations with continued presence of the inhibitor for 18 hours overnight in standard conditions as described in Example 2 methods. A neutraceutical, the green tea catechin ECGC (Sigma) was also tested. Luciferase signals were determined after cell lysis and compared as in Example 2.

[3] = biological target: T1, human latent TGF-β1 (Homo sapiens, UniProt P01137); format: cell-based; conditions: peptide incubated 45 minutes at 37° C. with 2 nM human latent TGF-β1, then 18 hours on MLEC; FIG. 5
T1 construct: purchased Acrobio, Inc
T1 sequence (P01137 30-278 limits assumed): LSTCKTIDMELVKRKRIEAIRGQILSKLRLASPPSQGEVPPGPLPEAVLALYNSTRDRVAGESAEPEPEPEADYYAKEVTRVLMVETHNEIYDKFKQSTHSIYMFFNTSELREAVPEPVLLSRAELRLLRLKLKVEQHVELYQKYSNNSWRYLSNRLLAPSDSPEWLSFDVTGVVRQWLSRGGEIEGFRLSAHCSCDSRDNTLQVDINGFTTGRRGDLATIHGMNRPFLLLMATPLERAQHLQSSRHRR

Row | Compound | block of NSP15 mediated effects on TGF-β1 signaling [1] | activation of latent TGF-β1 (luciferase signal, RLU) [3] | other results
1 | Cc1cccc(-c2nn3c(c2-c2ccnc4ccc(C(N)=O)cc24)CCC3)n1 [galunisertib] | block NSP15 mediated effects on TGF-β1 signaling |  | 
2 | O=C(O[C@@H]1Cc2c(O)cc(O)cc2O[C@@H]1c1cc(O)c(O)c(O)c1)c1cc(O)c(O)c(O)c1 [ECGC] |  |  | inhibition of active TGF-β1 signaling at higher concentrations ([2]; 80 uM, subsequent experiments, not shown): 80%; effectiveness at blocking active TGF-β1 signaling ([2]; 1-2 μM concentrations, MLEC, FIG. 7): not effective
3 | LLIGLAKRFKESPFEL [NSP15 KRFK-region peptide, 16 amino acid synthetic peptide centered on the SARS-CoV2 NSP15 KRFK region] |  | activates latent TGF-β1 | 
4 | DKRFKQDGGWSHWSPW [TSP1] |  | not a significant activator of latent TGF-β1 | 
5 | KFILALRKLLFESEGP [SCR] |  | not | 
6 | Cc1cccc(-c2[nH]c(C(C)(C)C)nc2-c2ccc3c(c2)OCO3)n1 [SB505124] | block NSP15 mediated effects on TGF-β1 signaling |  | 
